We go through three sequences from US20080306001A1, “TRANSCRIPTIONAL MODULATION OF EXTRACELLULAR MATRIX (ECM) OF DERMAL FIBROBLASTS” (priority 2007, published 2008).

The subject of experiment [1] is dermal fibroblasts. Kind of experiment: Effect of interfering peptides on expression of ECM components, protein level (Western blot). It is filed as cell-based, human. As for the experimental part: (§1) Human dermal fibroblasts were cultured in standard conditions (DMEM, 10% FCS, penicillin+streptomycin) and used in experiments after three passages in the laboratory. Cells were grown in 24 well plates, each treatment in triplicates. Cells were plated 16 hours prior treatments started. Peptides were added to the media, and media was changed every day during 7 day experiment. CPP concentration was 10 μM.
(§2) Western blot using antibodies against fibronectin, thrombospondin, collagen I, collagen II, collagen 4, elastin, MMP1, MMP2, MMP7 and TIMP1 were performed using standard protocols. Cells were lysed in SDS loading buffer and separated on 5% SDS PAGE following transfer onto PVD membrane using semidry blotting. Antibodies were diluted 1:2000 and incubated for 2 hours followed by secondary antibody conjugated to alkaline phosphatase. Antibody binding was visualized using one step BCIP reagent (Pierce).
(§3) The cells were treated with peptides (1 μM) 24 hours for the mRNA analysis and 72 hours for protein analysis. All experiments were done in triplicates. Variation between replicates was less that 15%.
For orientation: In western blotting, separated proteins are transferred to a membrane and probed.

Experiment [2] deals with human dermal fibroblasts. In words: Whole genome gene expression analysis (Affymetrix GeneChip Human Gene 1.0 ST Array). It is filed as cell-based. The note with it: peptide 10 μM, 24 hour. The method, then:
Human dermal fibroblasts were cultured in standard conditions (DMEM, 10% FCS, penicillin+streptomycin) and used in experiments after three passages in the laboratory. Cells were grown in 60 mm plates, each treatment in duplicates. Cells were plated 16 hours prior treatments started. Peptides (10 μM) were added to the media, and cells were collected for RNA isolation 24 hour later.
Total RNA was purified by using 4PCRmini kit (Ambion). First-strand cDNAs were synthesized with Superscript III reverse transcriptase (Invitrogen, USA) and 5 μg of total RNA using oligo d(T) priming in a final reaction volume of 50 μL and used to generate fluorescently labeled probes for whole genome gene expression analysis. Whole genome gene expression analysis was conducted using Affymetrix GeneChip™ Human Gene 1.0 ST Array.

In experiment [3] the test system is human dermal fibroblasts. Kind of experiment: Effect of peptides on expression of growth factors, mRNA (RT-PCR). Type of experiment: cell-based. The method, then: (§4) Human dermal fibroblasts were cultured in standard conditions (DMEM, 10% FCS, penicillin+streptomycin) and used in experiments after three passages in the laboratory. Cells were grown in 12 well plates, each treatment in triplicates. Cells were plated 16 hours prior treatments started. Peptides were added to the media, and media was changed every day during 7 day experiment. CPP concentration was 10 μM.
(§5) Total RNA from various human tissues was purified using RNAwiz (Ambion, USA) and subjected to subsequent DNase I treatment using the DNA-Free kit (Ambion). Total RNA from cancer cells was purified by using 4PCRmini kit (Ambion). First-strand cDNAs were synthesized with Superscript III reverse transcriptase (Invitrogen, USA) and 5 μg of total RNA using oligo d(T) priming in a final reaction volume of 50 μL
The cDNA was amplified by PCR using the 2,5U Hot-Firepol (Solis BioDyne, Estonia) and buffer Yellow (Naxo, Estonia). Reaction was performed in a 10 ul volume, using 0.5 ul cDNA as a template. Primer sets were designed to specifically amplify the nucleic acid sequence for the corresponding growth factor for this study: […]

For experiment [4], the system named is human dermal fibroblasts. Kind of experiment: Effect of peptides on expression of growth factors, protein (Western blot). It is filed as cell-based. The note with it: peptide 10 μM. As for the experimental part: as §4
Western blots using antibodies against growth factors were performed using standard protocols. Cells were lysed in SDS loading buffer and separated on 5% SDS PAGE following transfer onto PVD membrane using semidry blotting. Antibodies were diluted 1:2000 and incubated for 2 hours followed by secondary antibody conjugated to alkaline phosphatase. Antibody binding was visualized using one step BCIP reagent (Pierce).

For experiment [5], the system named is dermal fibroblasts. Kind of experiment: Effect of interfering peptides on expression of ECM components, mRNA level (RT-PCR). Type of experiment: cell-based, human. The note with it: peptide 1 μM, 24 hours. The method, then: as §1, §5
The cDNA was amplified by PCR using the 2,5U Hot-Firepol (Solis BioDyne, Estonia) and buffer Yellow (Naxo, Estonia). Reaction was performed in a 10 ul volume, using 0.5 ul cDNA as a template. Following primer sets were designed for this study:
as §3

Experiment [6] relates to human dermal fibroblast cell lines obtained from elderly patients. In words: Effect of CPP mimicking peptides on synthesis of collagen I, collagen II and elastin in aged dermal fibroblasts (Western blot). It is filed as cell-based. The note with it: peptide 10 μM. As for the experimental part:
The ability to interfere interaction of TAF4, BRG1 and N-CoR1 with the active transcriptional complex and stimulate synthesis of collagen I, collagen II and elastin was tested on 2 human dermal fibroblast cell lines obtained from elderly patients. It has been shown that: • TAF4 suppression using siRNA stimulates expression of numerous genes in embryonic fibroblasts. (Mengus G, Fadloun A, Kobi D, Thibault C, Perletti L, Michel I, Davidson I. 2005. TAF4 inactivation in embryonic fibroblasts activates TGFbeta signaling and autocrine growth. EMBO J. 2005 Aug. 3; 24(15):2753-67.) • Brg1 inhibits numerous genes during development. (Inayoshi Y, Kaneoka H, Machida Y, Terajima M, Dohda T, Miyake K, Iijima S. 2005. Repression of GR-mediated expression of the tryptophan oxygenase gene by the SWI/SNF complex during liver development. J Biochem (Tokyo). 2005 October; 138(4):457-65) • N-CoR1 plays a crucial role in the repressive activity of diverse transcription factors (J. Frasor, J. M. Danes, C. C. Funk and B. S. Katzenellenbogen. 2005. Estrogen down-regulation of the corepressor N-CoR: Mechanism and implications for estrogen derepression of N-CoR-regulated genes. PNAS. vol. 102 no. 37, 13153-13157.) • SMAD7 functions as a component of negative feedback regulation that controls timining and extent of TGFbeta signaling (Zhu X, Topouzis S, Liang L F, Stotish RL. Myostatin signaling through Smad2, Smad3 and Smad4 is regulated by the inhibitory Smad7 by a negative feedback mechanism. Cytokine. 2004 Jun. 21; 26(6):262-72.) • TAF10 is one of the TATA box-binding protein-associated factors (TAFs), which constitute the TFIID complex.
as §1, §2

Where [7] appears, read: fibroblast 1 (first block of Table 1).
[8] abbreviates: second block of Table 1 (also fibroblast 1).

Turning to “RPKKRKVRRRGQLNSDHKSQLVEKVRLKIGCGIQL [SMAD7.1, CPP-mimicking peptide]”, in the experiment with dermal fibroblasts [1] (dermal fibroblasts in vitro, protein and mRNA), the “expression of components of ECM (in words)” value is recorded as “stimulate expression of components of ECM”. In addition, in the experiment on dermal fibroblasts [1] (peptide 1 μM, 72 hours), the “CollagenI protein, fold stimulation” value turned out to be 2.9 fold; the “Elastin protein, fold stimulation” value is recorded as 2.6 fold; the “Fibronectin protein, fold stimulation” value amounted to 3.1 fold; the “MMP1 protein, fold stimulation” value is on record as 1.9 fold. In addition, in the experiment with dermal fibroblasts [1] (peptide 1 μM, 72 hours), the “MMP2 protein, fold stimulation” value was 1.1 fold; the “MMP7 protein, fold stimulation” value worked out at 1.9 fold; the “TIMP protein, fold stimulation” value was 1.3 fold; the “collagen IV protein, fold stimulation” value is 2.1 fold. For the same sequence, the “thrombospondin protein, fold stimulation” value in the experiment with dermal fibroblasts [1] (peptide 1 μM, 72 hours) amounted to 3.2 fold. In addition, in the experiment with human dermal fibroblasts [2], the “Number of genes with altered expression: expression stimulated 2-5 fold” value is recorded as 986, the “Number of genes with altered expression: expression stimulated more than 5 fold” value stood at 198, the “Number of genes with altered expression: expression suppressed 2-5 fold” value stood at 1011 and the “Number of genes with altered expression: expression suppressed more than 5 fold” value was 124. Besides, in the experiment with human dermal fibroblasts [3] (peptide 10 μM), the “CTGF mRNA, fold stimulation of expression compared to control” value is given as 27 fold; the “HGF mRNA, fold stimulation of expression compared to control” value stood at 8 fold; the “IGF-1 mRNA, fold stimulation of expression compared to control” value is reported as 4 fold; the “VEGF mRNA, fold stimulation of expression compared to control” value came to 4 fold. In addition, the “b-FGF mRNA, fold stimulation of expression compared to control” value in the experiment with human dermal fibroblasts [3] (peptide 10 μM) turned out to be 2 fold. The “expression of CTGF (in words)” value in the experiment on human dermal fibroblasts [3] (protein and mRNA) is listed as “stimulate expression of CTGF significantly”. Further, in the experiment on human dermal fibroblasts [4], the “CTGF protein, fold stimulation of expression compared to control” value is recorded as 15 fold; the “HGF protein, fold stimulation of expression compared to control” value was 1.7 fold; the “IGF-1 protein, fold stimulation of expression compared to control” value is reported as 1 fold; the “VEGF protein, fold stimulation of expression compared to control” value was found to be 1.3 fold. Also, the “b-FGF protein, fold stimulation of expression compared to control” value in the experiment on human dermal fibroblasts [4] was determined as 1 fold. Also, in the experiment on dermal fibroblasts [5], the “MMP1 mRNA, fold stimulation” value was 3.6 fold; the “MMP7 mRNA, fold stimulation” value is 2.9 fold; the “MMp2 mRNA, fold stimulation” value came out at 1.9 fold; the “TIMP mRNA, fold stimulation” value is 4.3 fold. Moreover, in the experiment with dermal fibroblasts [5], the “collagen IV mRNA, fold stimulation” value came out at 5.4 fold; the “collagenI mRNA, fold stimulation” value amounted to 7.9 fold; the “elastin mRNA, fold stimulation” value amounted to 7.7 fold; the “fibronectin mRNA, fold stimulation” value is 8.7 fold. For the same sequence, in the experiment on dermal fibroblasts [5], the “thrombospondin mRNA, fold stimulation” value came out at 6.9 fold.

As for “RPKKRKVRRRLATNSELVGTLTRSCKDETFLL (synethetic amino acid sequence) [TAF4.1, CPP-mimicking peptide]”, in experiment [6] (setting [7]), the “collagen I, fold increase after 7 days” value is listed as 5 fold; the “collagen II, fold increase after 7 days” value was found to be 3 fold; the “elastin, fold increase after 7 days” value was 4 fold. Also, in experiment [6] (setting [8]), the “collagen I, fold increase after 7 days” value was 2 fold; the “collagen II, fold increase after 7 days” value is 4 fold; the “elastin, fold increase after 7 days” value was 2 fold.

On to “RPKKRKVRRRMGLGKTIQTIALITYLMEHKRINGP [BRG1.1, CPP-mimicking peptide]”, for which, in experiment [6] (setting [7]), the “collagen I, fold increase after 7 days” value was found to be 7 fold; the “collagen II, fold increase after 7 days” value turned out to be 2 fold; the “elastin, fold increase after 7 days” value was 3 fold. In experiment [6] (setting [8]), the “collagen I, fold increase after 7 days” value was found to be 3 fold; the “collagen II, fold increase after 7 days” value is 5 fold; the “elastin, fold increase after 7 days” value worked out at 6 fold.
